The target of the assay is Bet BRD4 full length bromo-domain protein (Homo sapiens, UniProt O60885). Briefly: Bet bromodomain TR-FRET assay (displacement of acetyl histone peptide). The class given is binding. As to conditions: Bet BRD4 full length bromodomain protein, 300 nM acetyl histone peptide substrate, read-out: IC50. (In TR-FRET formats the signal depends on donor and acceptor labels being close together.)

As for `COc1ccccc1S(=O)(=O)Nc1cc(NC2=CC(=O)NCC2)c2c(c1)C1(CCC1)C(=O)N2` [Compound 77, 2-Methoxy-N-(2′-oxo-7′-((6-oxo-1,2,3,6-tetrahydropyridin-4-yl)amino)spiro[cyclobutane-1,3′-indolin]-5′-yl)benzenesulfonamide], the half-inhibitory concentration (IC50) was < 600 nM. With `COc1ccccc1S(=O)(=O)Nc1cc(NC2CCN(C)CC2F)c2c(c1)C1(CCC1)C(=O)N2` (centres unmarked) [Compound 78, N-(7′-((3-fluoro-1-methylpiperidin-4-yl)amino)-2′-oxospiro [cyclobutane-1,3′-indolin]-5′-yl)-2-methoxy benzenesulfonamide] the figure was < 600 nM; with `O=C1Nc2c(NC3CCNCC3)cc(NS(=O)(=O)c3ccc(F)cc3F)cc2C12CCC2` [Compound 79a, 2,4-Difluoro-N-(2′-oxo-7′-(piperidin-4-ylamino)spiro [cyclobutane-1,3′-indolin]-5′-yl)benzenesulfonamide], < 600 nM; with `COC(=O)c1ccc(S(=O)(=O)Nc2cc(C(=O)NC3CCN(C)CC3)c3c(c2)C2(CCC2)C(=O)N3)c(F)c1` [Compound 80, Methyl 3-fluoro-4-(N-(7′-((1-methylpiperidin-4-yl)carbamoyl)-2′-oxospiro[cyclobutane-1,3′-indolin]-5′-yl)sulfamoyl)benzoate], > 1000 nM. Turning to `CN1CCC(NC(=O)c2cc(NS(=O)(=O)c3ccc(C#N)cc3F)cc3c2NC(=O)C32CCC2)CC1` [Compound 81, 5′-((4—Cyano-2-fluorophenyl)sulfonamido)-N-(1-methylpiperidin-4-yl)-2′-oxospiro[cyclobutane-1,3′-indoline]-7′-carboxamide], the IC50 was > 1000 nM. With `CN1CCC(NC(=O)c2cc(NS(=O)(=O)C3CCCCC3)cc3c2NC(=O)C32CCC2)CC1` [Compound 83, 5′-(Cyclohexanesulfonamido)-N-(1-methylpiperidin-4-yl)-2′-oxospiro[cyclobutane-1,3′-indoline]-7′-carboxamide] the figure was 600 to 1000 nM. To `CCOc1ccccc1S(=O)(=O)Nc1cc(C(=O)NC2CCN(C)CC2)c2c(c1)C1(CCC1)C(=O)N2` [Compound 84, 5′-(2-Ethoxyphenylsulfonamido)-N-(1-methylpiperidin-4-yl)-2′-oxospiro[cyclobutane-1,3′-indoline]-7′-carboxamide] belongs 600 to 1000 nM; to `CN1CCC(NC(=O)c2cc(NS(=O)(=O)N3CCCCC3)cc3c2NC(=O)C32CCC2)CC1` [Compound 85, N-(1-methylpiperidin-4-yl)-2′-oxo-5′-(piperidine-1-sulfon amido)spiro[cyclobutane-1,3′-indoline]-7′-carboxamide], > 1000 nM; to `CN1CCC(NC(=O)c2cc(NS(=O)(=O)c3cc(F)ccc3F)cc3c2NC(=O)C32CCC2)CC1` [Compound 86, 5′-(2,5-Difluorophenylsulfonamido)-N-(1-methylpiperidin-4-yl)-2′-oxospiro[cyclobutane-1,3′-indoline]-7′-carboxamide], < 600 nM. With `COc1ccccc1S(=O)(=O)Nc1cc(Cc2cccnc2)c2c(c1)C1(CCC1)C(=O)N2` [Compound 87, 2-Methoxy-N-(2′-oxo-7′-(pyridin-3-ylmethyl)spiro[cyclobutane-1,3′-indolin]-5′-yl)benzenesulfonamide] the figure was < 600 nM; with `O=C1Nc2c(-c3ccc4c(c3)CNCC4)cc(NS(=O)(=O)c3ccc(F)cc3F)cc2C12CCC2` [Compound 88, 2,4-Difluoro-N-(2′-oxo-7′-(1,2,3,4-tetrahydroisoquinolin-7-yl)spiro-[cyclobutane-1,3′-indolin]-5′-yl)benzenesulfonamide], < 600 nM.

In the case of `CN1CCC(c2cc(NS(=O)(=O)c3ccc(F)cc3F)cc3c2NC(=O)C32CCC2)CC1` [Compound 89, 2,4-Difluoro-N-(7′-(1-methylpiperidin-4-yl)-2′-oxospiro[cyclobutane-1,3′-indolin]-5′-yl)benzenesulfonamide], the concentration for half-maximal inhibition (IC50) was < 600 nM. On to `COc1ccc(S(=O)(=O)Nc2cc(C3CCNCC3)c3c(c2)C2(CCC2)C(=O)N3)c(OC)c1` [Compound 92, 2,4-Dimethoxy-N-(2′-oxo-7′-(piperidin-4-yl)spiro[cyclobutane-1,3′-indolin]-5′-yl)benzenesulfonamide], for which the 50% inhibitory concentration (IC50) was < 600 nM. Consider `COc1ccc(S(=O)(=O)Nc2cc(Cc3ccccc3)c3c(c2)C2(CCC2)C(=O)N3)c(F)c1` [Compound 93, N-(7′-benzyl-2′-oxospiro[cyclobutane-1,3′-indolin]-5′-yl)-2-fluoro-4-methoxybenzenesulfonamide], for which the half-inhibitory concentration (IC50) is < 600 nM. As to `COc1cc(F)ccc1S(=O)(=O)Nc1cc(Cc2ccccc2)c2c(c1)C1(CCC1)C(=O)N2` [Compound 94, N-(7′-benzyl-2′-oxospiro[cyclobutane-1,3′-indolin]-5′-yl)-4-fluoro-2-methoxybenzenesulfonamide], the IC50 is < 600 nM. With `COc1ccc(S(=O)(=O)Nc2cc(Cc3cccc(F)c3)c3c(c2)C2(CCC2)C(=O)N3)c(F)c1` [Compound 95, 2-Fluoro-N-(7′-(3-fluorobenzyl)-2′-oxospiro[cyclobutane-1,3′-indolin]-5′-yl)-4-methoxybenzenesulfonamide] the figure was < 600 nM; with `COc1cc(F)ccc1S(=O)(=O)Nc1cc(Cc2cccc(F)c2)c2c(c1)C1(CCC1)C(=O)N2` [Compound 96, 4-Fluoro-N-(7′-(3-fluorobenzyl)-2′-oxospiro[cyclobutane-1,3′-indolin]-5′-yl)-2-methoxybenzenesulfonamide], < 600 nM; with `COc1ccc(S(=O)(=O)Nc2cc(C3CCN(C)CC3)c3c(c2)C2(CCC2)C(=O)N3)c(F)c1` [Compound 98, 2-Fluoro-4-methoxy-N-(7′-(1-methylpiperidin-4-yl)-2′-oxospiro-[cyclobutane-1,3′-indolin]-5′-yl)benzenesulfonamide], < 600 nM. With `O=C1Nc2c(-c3ccc(O)nc3)cc(NS(=O)(=O)c3ccc(F)cc3F)cc2C12CCC2` [Compound 99, 2,4-Difluoro-N-(7′-(6-hydroxypyridin-3-yl)-2′-oxospiro [cyclobutane-1,3′-indolin]-5′-yl)benzenesulfonamide] the figure was 600 to 1000 nM.

Turning to `O=C1Nc2c(-c3ccnc(O)c3)cc(NS(=O)(=O)c3ccc(F)cc3F)cc2C12CCC2` [Compound 100, 2,4-difluoro-N-(7′-(2-hydroxypyridin-4-yl)-2′-oxospiro[cyclobutane-1,3′-indolin]-5′-yl)benzenesulfonamide], the IC50 is > 1000 nM.

For the compound `O=C1Nc2c(NC3CCNCC3F)cc(NS(=O)(=O)c3ccc(F)cc3F)cc2C12CCC2` (centres unmarked) [Compound 102, 2,4-Difluoro-N-(7′-((3-fluoropiperidin-4-yl)amino)-2′-oxospiro[cyclobutane-1,3′-indolin]-5′-yl)benzenesulfonamide], the half-inhibitory concentration (IC50) lay in the range of 600 to 1000 nM.

On to `CC1(C)CNCCC1Nc1cc(NS(=O)(=O)c2ccc(F)cc2F)cc2c1NC(=O)C21CCC1` (centres unmarked) [Compound 103, N-(7′-((3,3-dimethylpiperidin-4-yl)amino)-2′-oxospiro[cyclobutane-1,3′-indolin]-5′-yl)-2,4-difluorobenzenesulfonamide], for which the 50% inhibitory concentration (IC50) was < 600 nM. To `O=C1CC(c2cc(NS(=O)(=O)c3ccc(F)cc3F)cc3c2NC(=O)C32CCC2)CCN1` (centres unmarked) [Compound 104, 2,4-Difluoro-N-(2′-oxo-7′-(2-oxopiperidin-4-yl)spiro[cyclobutane-1,3′-indolin]-5′-yl)benzenesulfonamide] belongs < 600 nM; to `O=C1CCC(c2cc(NS(=O)(=O)c3ccc(F)cc3F)cc3c2NC(=O)C32CCC2)CN1` (centres unmarked) [Compound 105, 2,4-Difluoro-N-(2′-oxo-7′-(6-oxopiperidin-3-yl)spiro [cyclobutane-1,3′-indolin]-5′-yl)benzenesulfonamide], < 600 nM; to `CN1CCc2ccc(-c3cc(NS(=O)(=O)c4ccc(F)cc4F)cc4c3NC(=O)C43CCC3)cc2C1` [Compound 106, 2,4-Difluoro-N-(7′-(2-methyl-1,2,3,4-tetrahydroisoquinolin-7-yl)-2′-oxospiro[cyclobutane-1,3′-indolin]-5′-yl)benzenesulfonamide], < 600 nM. With `COc1ccccc1S(=O)(=O)Nc1cc(C(C)c2ccccc2)c2c(c1)C1(CCC1)C(=O)N2` (centres unmarked) [Compound 113, 2-Methoxy-N-(2′-oxo-7′-(1-phenylethyl)spiro [cyclobutane-1,3′-indolin]-5′-yl)benzenesulfonamide] the figure was < 600 nM; with `CN1CCC(CCc2cc(NS(=O)(=O)c3ccc(F)cc3F)cc3c2NC(=O)C32CCC2)CC1` [Compound 116, 2,4-Difluoro-N-(7′-(2-(1-methylpiperidin-4-yl)ethyl)-2′-oxospiro-[cyclobutane-1,3′-indolin]-5′-yl)benzenesulfonamide], < 600 nM; with `COc1ccccc1NC(=O)Nc1cc(C2CC2)c2c(c1)C1(CCC1)C(=O)N2` [Compound 121, 1-(7′—Cyclopropyl-2′-oxospiro[cyclobutane-1,3′-indolin]-5′-yl)-3-(2-methoxyphenyl)urea], < 600 nM. Take `COc1ccccc1S(=O)(=O)Nc1cc(C(C)c2cccnc2)c2c(c1)C1(CCC1)C(=O)N2` (centres unmarked) [Compound 122, 2-Methoxy-N-(2′-oxo-7′-(1-(pyridin-3-yl)ethyl)spiro[cyclobutane-1,3′-indolin]-5′-yl)benzenesulfonamide]: the IC50 was < 600 nM. For `COc1ccccc1S(=O)(=O)Nc1cc(C(C)c2ccccn2)c2c(c1)C1(CCC1)C(=O)N2` (centres unmarked) [Compound 123, 2-Methoxy-N-(2′-oxo-7′-(1-(pyridin-2-yl)ethyl)spiro [cyclobutane-1,3′-indolin]-5′-yl)benzenesulfonamide], the IC50 is < 600 nM. With `COc1ccccc1S(=O)(=O)Nc1cc(Oc2ccccn2)c2c(c1)C1(CCC1)C(=O)N2` [Compound 124, 2-Methoxy-N-(2′-oxo-7′-(pyridin-2-yloxy)spiro[cyclobutane-1,3′-indolin]-5′-yl)benzenesulfonamide] the figure was < 600 nM; with `COc1ccccc1S(=O)(=O)Nc1cc(C(F)c2ccccc2)c2c(c1)C1(CCC1)C(=O)N2` (centres unmarked) [Compound 125, N-(7′-(fluoro(phenyl)methyl)-2′-oxospiro[cyclobutane-1,3′-indolin]-5′-yl)-2-methoxybenzenesulfonamide], < 600 nM.

The term IC50 denotes the point on the concentration scale where inhibition reaches its midpoint.

For the origin of these results see US10336697B2, “Spiro[cyclobutane-1,3′-indolin]-2′-one derivatives as bromodomain inhibitors” (Orion Corporation, priority 2015, dated 2019).
